In paper PMC3912631, “Bench to Bed Evidences for Pharmacokinetic and Pharmacodynamic Interactions Involving Oseltamivir and Chinese Medicine” (Evidence-based Complementary and Alternative Medicine : eCAM, 2014):
Like-named read-outs stand apart in the source and are kept apart here.

Experiment: Rat pharmacokinetics of OA and OC in plasma and urine after oral OA alone or with CMF1
Format: in vivo, Sprague-Dawley rats
Conditions: for Tmax / Cmax / CL renal / half-life: male, Sprague-Dawley, in vivo, po, 30 mg/kg; for Tmax / Cmax / CL renal / half-life / AUC0–8 h / AUC0–inf / Renal recovery: oral, bid for 5 days; for Tmax: mean ± SD, read-out: T max (converted); for Cmax: read-out: C max; for CL renal: read-out: CL renal; for half-life: read-out: t 1/2, λz; for Renal recovery: urine over 8 h
Experimental: The study was approved by the Animal Ethics Committee of The Chinese University of Hong Kong. Male Sprague-Dawley rats (230–250 g) were utilized and supplied by the Laboratory Animal Service Center at The Chinese University of Hong Kong. The rats were housed under standard conditions of temperature, humidity, and light and randomly divided into six groups with 10–12 rats in each group. […] The dose of 1.95 g/kg CMF1 is calculated based on the human dose recommended by the Chinese physicians and a doubled dose of CMF1 at […] is also used in the current study due to the potential large dosing range for Chinese medicine adopted in the practice. […]
For dosing, OA (4 mg/mL) was freshly prepared by dissolving it in water and orally given to rats by gavage, bid (twice daily) for 4 days (9:00am and 6:00pm for each day), and CMF1 was also freshly suspended in water and then orally given to rats 2 h later of OA dosing (11:00 am and 8:00 pm for each day).
For Groups of 1 to 3, a surgery for jugular vein cannulation was performed 1 h after CMF1 second dosing on day 4. A polyethylene catheter (0.50 mm ID, 1.00 mm OD, Portex Limited, Hythe, Kent, England) was cannulated into the right jugular vein under anesthesia. After surgery, the rat was placed in separated metabolic cage and allowed to recover and fasted overnight with free access to water. In the morning of day 5, blood samples (0.2 mL each) of the rats in the Groups 1–3 were collected via the catheter at 0, 15, 30, 60, 90, 120, 180, 240, 360, and 480 min after dosing of OA. After which, 0.2 mL of normal saline containing 20 units/mL of heparin was then injected into the catheter to flush the catheter. The collected blood samples were immediately placed in heparinized tubes containing dichlorvos (5 μL of 8 mg/mL dichlorvos in normal saline) for inhibition of carboxylesterase, followed by centrifugation to obtain the plasma and stored at −80°C. Urine samples were collected over 8 h postdose and combined with water used for rinsing the metabolic cage, further diluted to 200 mL, and then stored at −80°C until assay.
The rat/human plasma and urine samples were treated and analyzed by an LC/MS/MS system as previously described. Briefly, 200 μL plasma/urine samples was mixed with cephalexin hydrate (internal standard, IS) working solution (final 2 μg/mL) and acidified with 1 mL of 10% perchloric acid in water (if necessary, dilution with blank human urine was required for urine samples). After mixing and centrifugation, the supernatant was loaded in prewashed Oasis MCX cartridge (1 cc, 30 mg, Waters) and the cartridge was rinsed subsequently with 1% formic acid, water, and methanol followed by vacuum dried for 20 min. The analytes were then eluted with 1 mL of 1% ammonia in methanol. The eluting solvent was dried by a vacuum concentrator and the residue was reconstituted with 200 μL of 0.1% formic acid : methanol (1 : 1 v/v) prior to HPLC/MS/MS analysis using an ABI 2000 Q-Trap triple quadrupole mass spectrometer (Applied Biosystems) coupled with PE-200 series micropumps and autosampler (Perkin-Elmer). The chromatographic separation was achieved by using a Nova-Pak CN HP column (75 × 3.9 mm i.d., 4 μm particle size, Waters) and the HPLC solvent system consisted of methanol (A) and 0.1% formic acid in water (B), with 50% A (for plasma samples) or 60% A (for urine samples) at 1 mL/min. The temperatures of autosampler and the analytical column were set at 4°C and ambient, respectively, and the sample injection volume was 20 μL. Prior to the mass spectrometric system, 60% of the LC eluent was split off and only 40% of the eluent was introduced into the ESI source.
The plasma/urine OA and OC concentrations versus time profiles were analyzed using WinNonlin software standard edition version 2.1 (Pharsight Corporation). […] In human study, trough concentration (C trough) was defined as the minimum concentration obtained and was obtained at 12 h post-dose. […]

[1] = Group 2: OA 30 mg/kg + CMF1 at 1.95 mg/kg
[2] = Group 3: OA 30 mg/kg + CMF1 at 3.90 mg/kg

CCC(CC)O[C@@H]1C=C(C(=O)O)C[C@H](N)[C@H]1NC(C)=O [OC, oseltamivir carboxylate]
decrease of C max, urinary recovery and AUC of OC and OC/OA AUC ratio in OA + CMF1 groups vs OA alone (dose-dependent): 26%-27%
Tmax (Group 1: OA alone 30 mg/kg): 1.75 h
Cmax (Group 1: OA alone 30 mg/kg): 1650 ± 400 ng/mL
CL renal (Group 1: OA alone 30 mg/kg): 6.33 ± 1.27 mL/min
half-life (Group 1: OA alone 30 mg/kg): 2.53 ± 0.418 h
Tmax [1]: 1.77 h
Cmax [1]: 1360 ± 280 ng/mL
CL renal [1]: 6.27 ± 1.76 mL/min
half-life [1]: 2.44 ± 0.318 h
Tmax [2]: 2 h
Cmax [2]: 1190 ± 230 ng/mL
CL renal [2]: 6.34 ± 0.69 mL/min
half-life [2]: 2.61 ± 0.28 h
AUC0–8 h (Group 1: OA alone 30 mg/kg): 418.81 ± 90.86 μg∗min/mL
AUC0–inf (Group 1: OA alone 30 mg/kg): 485.45 ± 113.03 μg∗min/mL
AUC0–8 h [1]: 344.13 ± 91.46 μg∗min/mL
AUC0–inf [1]: 395.67 ± 109.41 μg∗min/mL
AUC0–8 h [2]: 304.84 ± 40.32 μg∗min/mL
AUC0–inf [2]: 359.21 ± 41.30 μg∗min/mL
Renal recovery (Group 1: OA alone 30 mg/kg): 35.26 ± 5.40 % of dose
Renal recovery [1]: 29.73 ± 7.33 % of dose
Renal recovery [2]: 25.94 ± 3.09 % of dose
